From US20180327367A1, “MACROCYCLIC BROAD SPECTRUM ANTIBIOTICS” (priority 2015, published 2018)
≈ marks a conversion by molar mass, not a printed value. Like-named read-outs stand apart in the source and are kept apart here.

Legend:
[1] = test system: Methicillin Resistant Staphylococcus aureus strain USA 300, NRS384; assay: Minimum inhibitory concentration, broth micro-dilution (CLSI), S. aureus; format: cell-based; settings: Staphylococcus aureus, MRSA / NRS 384 / USA300, 22 h, 35° C., 22 hours
Outline: (§1)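 CLSI broth microdilution in cation-adjusted Mueller Hinton Broth with 0.002% Tween-80; inoculum final OD600 0.0005, 22 hours at 35° C. Ten 2-fold dilutions starting at 4 μg/mL (protocol 2) or 0.5 μg/mL (protocol 3).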

[2] = test system: Escherichia coli ATCC 25922; assay: Minimum inhibitory concentration, broth micro-dilution (CLSI), E. coli; format: cell-based; settings: Escherichia coli, ATCC25922, 22 h, 35° C., 22 hours
[3] = biological target: T1, SpsB (Staphylococcus aureus signal peptidase) (Staphylococcus aureus, UniProt P0A070); assay: cell-based; format: biochemical; settings: SpsB IC50, whole-cell S. aureus (USA300 background, overexpressing SpsB) as SpsB source; fluorogenic peptide substrate, kinetic read 30 min
T1 construct: This assay uses a suspension of Staphylococcus aureus cells as a source of SpsB instead of recombinant SpsB protein; endogenous in cells; host or cells: S. aureus, USA300 background, overexpressing SpsB (whole-cell suspension from frozen pellets)
T1 sequence (P0A070 whole entry): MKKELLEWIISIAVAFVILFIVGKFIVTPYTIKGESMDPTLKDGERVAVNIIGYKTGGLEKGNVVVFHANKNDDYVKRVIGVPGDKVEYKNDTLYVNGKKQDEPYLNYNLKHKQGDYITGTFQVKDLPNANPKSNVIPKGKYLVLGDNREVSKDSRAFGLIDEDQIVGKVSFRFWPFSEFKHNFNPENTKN
Description: A kinetic fluorogenic enzyme activity assay was used to assess inhibition of SpsB (Staphylococcus aureus signal peptidase) activity and IC50s were determined. This assay uses a suspension of Staphylococcus aureus cells as a source of SpsB instead of recombinant SpsB protein.
Cell preparation: Luria broth (LB) was inoculated with S. aureus (USA300 background, overexpressing SpsB) and shaken at 37° C. until an OD600 nm of 1.5-2.0 was reached (˜4 hr). The culture was then diluted to an OD600 nm of 1.0 with LB, aliquoted and centrifuged at 10,000×g for 2 mins. The supernatant was removed and the pellet was resuspended in phosphate buffer (1×PBS, 12.5 mg/L MgCl2, 25 mg/L CaCl2, 0.1% Tween-80) to an OD600 nm of 0.5, then centrifuged again at 10,000x g for 2 mins. The supernatant was removed and the pellets were frozen at −20° C.
Test compounds were prepared in DMSO at a concentration of 10 mg/mL. These compound stocks were diluted into DMSO to a concentration of 25 μg/mL and serial 3-fold dilutions were made in DMSO, for a total of 11 compound concentrations. 20 nL of each compound solution was pre-spotted into a white 384-well plate (50 μL/well polypropylene, Nunc) using acoustic fluid transfer (Echo).
Frozen S. aureus pellets were resuspended in assay buffer (1x PBS, 12.5 mg/L MgCl2, 25 mg/L CaCl2, 0.1% Tween-80) to an OD600 nm of 0.05, then mixed 1:1 (v/v) with 20 μM substrate ((Dabcyl)βAla-KPAKAAE(Edans)) in assay buffer, and this solution was added (20 μL/well) to the 384-well plate that had been pre-spotted with compound. Fluorescence intensity was then immediately read kinetically for 30 minutes with 2 minute read intervals to monitor cleavage of the internally quenched peptide substrate (excitation wavelength=340 nm, emission wavelength=490 nm, Molecular Devices Spectramax M5). Reaction rate (slope) was plotted against inhibitor concentration to derive the IC50.

[4] = test system: Escherichia coli MC4100 harboring the IMP4213 (E. coli IMP); assay: microbe, parasite or virus in culture; format: cell-based; settings: Escherichia coli, 22 h, read-out: MIC (μg/mL) E. coli IMP, E. coli MC4100 IMP4213, increased outer-membrane permeability; 35° C., 22 hours
Outline: as §1

[5] = MRSA USA 300 NRS384, read-out: MIC (μg/mL) S. aureus
[6] = E. coli ATCC 25922, read-out: MIC (μg/mL) E. coli
[7] = read-out: MIC (μg/mL) S. aureus, MRSA USA 300 NRS384
[8] = read-out: MIC (μg/mL) E. coli, E. coli ATCC 25922

SMILES	MIC [1, 5] [µg/mL]	MIC [2, 6] [µg/mL]	IC50 [3] [nM]	MIC [1, 7] [µg/mL]	MIC [2, 8] [µg/mL]	MIC [4] [µg/mL]
CCCCCc1ncc(C(=O)N[C@@H](CCN)C(=O)N(C)[C@@H]2C(=O)N[C@@H](C)C(=O)N[C@H](C(=O)NCC#N)Cc3ccc(OCCN)c(c3)-c3cc2ccc3OCCN)c(C)n1 [Compound 200]	1 (≈ 1.21 µM)	4 (≈ 4.83 µM)	2.8	–	–	–
Cc1cc(Oc2ccc(C(C)(C)C)cc2)ccc1C(=O)N[C@@H](CCN)C(=O)N(C)[C@@H]1C(=O)N[C@@H](C)C(=O)N[C@H](C(=O)NCC#N)Cc2ccc(OCCN)c(c2)-c2cc1ccc2OCCN [Compound 302]	–	–	0.79	0.031 (≈ 0.0343 µM)	0.25 (≈ 0.277 µM)	–
C[C@@H]1NC(=O)[C@@H](N(C)C(=O)[C@H](CCCCN)NC(=O)c2ccc(-c3ccc(Cl)cc3)cc2)c2ccc(OCCN)c(c2)-c2cc(ccc2O)C[C@@H](C(=O)NCC#N)NC1=O [Compound 318]	–	–	0.8	–	–	–
CCCCCCCCc1ccc2c(c1)C(C)N([C@@H](CCN)C(=O)N(C)[C@@H]1C(=O)N[C@@H](C)C(=O)N[C@H](C(=O)NCC#N)Cc3ccc(OCCN)c(c3)-c3cc1ccc3OCCN)C2=O (stereo partly shown) [Compound 489]	0.19 (≈ 0.216 µM)	8 (≈ 9.09 µM)	–	–	–	0.25 (≈ 0.284 µM)
C[C@@H]1NC(=O)[C@@H](N(C)C(=O)[C@H](CCN)NC(=O)CCCc2ccc(F)cc2)c2ccc(OCCN)c(c2)-c2cc(ccc2OCCN)C[C@@H](C(=O)NCC#N)NC1=O [Compound 493]	3 (≈ 3.74 µM)	> 64	–	–	–	2 (≈ 2.49 µM)
CCCCCCc1ccc(C(=O)N[C@@H]2CN[C@H](C(=O)N(C)[C@@H]3C(=O)N[C@@H](C)C(=O)N[C@H](C(=O)NCC#N)Cc4ccc(OCCN)c(c4)-c4cc3ccc4OCCN)C2)c(C)c1 [Compound 498]	0.5 (≈ 0.587 µM)	16 (≈ 18.8 µM)	–	–	–	1 (≈ 1.17 µM)
CCCCCCCc1ccc(C(=O)N[C@@H](CCN)C(=O)N(C)[C@@H]2C(=O)N[C@@H](C)C(=O)N[C@H](C(=O)NCC#N)Cc3ccc(OCCNC(=O)CN)c(c3)-c3cc2ccc3OCCNC(=O)CN)c(C)c1 [Compound 499]	0.063 (≈ 0.0651 µM)	0.5 (≈ 0.516 µM)	–	–	–	0.023 (≈ 0.0238 µM)
CCCCCCCCc1ccc(C(=O)N[C@@H](CCC(=O)NC)C(=O)N(C)[C@@H]2C(=O)N[C@@H](C)C(=O)N[C@H](C(=O)NCC#N)Cc3ccc(OCCN)c(c3)-c3cc2ccc3OCCN)c(C)c1 [Compound 501]	0.38 (≈ 0.418 µM)	16 (≈ 17.6 µM)	–	–	–	> 0.13
Cc1nc(-c2ccc(CC(C)C)cc2)ccc1C(=O)N[C@@H](CCN)C(=O)N(C)[C@@H]1C(=O)N[C@@H](C)C(=O)N[C@H](C(=O)NCC#N)Cc2ccc(O)c(c2)-c2cc1ccc2OCCN [Compound 502]	0.063 (≈ 0.0745 µM)	0.25 (≈ 0.296 µM)	–	–	–	0.003 (≈ 0.00355 µM)
CCCCc1ccc(-c2ncc(C(=O)N[C@@H](CCN)C(=O)N(C)[C@@H]3C(=O)N[C@@H](C)C(=O)N[C@H](C(=O)NCC#N)Cc4ccc(O)c(c4)-c4cc3ccc4OCCN)c(C)n2)cc1 [Compound 503]	0.031 (≈ 0.0366 µM)	0.13 (≈ 0.153 µM)	–	–	–	0.002 (≈ 0.00236 µM)
CCCCCCc1ccc(-c2ncc(C(=O)N[C@@H](CCN)C(=O)N(C)[C@@H]3C(=O)N[C@@H](C)C(=O)N[C@H](C(=O)NCC#N)Cc4ccc(O)c(c4)-c4cc3ccc4OCCN)c(C)n2)cc1 [Compound 504]	0.094 (≈ 0.107 µM)	0.25 (≈ 0.286 µM)	–	–	–	0.016 (≈ 0.0183 µM)
CCc1ccc(-c2ncc(C(=O)N[C@@H](CCN)C(=O)N(C)[C@@H]3C(=O)N[C@@H](C)C(=O)N[C@H](C(=O)NCC#N)Cc4ccc(O)c(c4)-c4cc3ccc4OCCN)c(C)n2)cc1 [Compound 505]	0.25 (≈ 0.305 µM)	2 (≈ 2.44 µM)	–	–	–	0.016 (≈ 0.0195 µM)
CCCCCCc1ccc(-c2ncc(C(=O)N[C@@H](CCN)C(=O)N(C)[C@@H]3C(=O)N[C@@H](C)C(=O)N[C@H](C(=O)NCC#N)Cc4ccc(OCCN)c(c4)-c4cc3ccc4OCCN)n2C)cc1 [Compound 507]	0.031 (≈ 0.0342 µM)	0.75 (≈ 0.828 µM)	–	–	–	0.016 (≈ 0.0177 µM)
CCCCc1ccc(C(=O)N[C@@H](CCCCN)CC(=O)N(C)[C@@H]2C(=O)N[C@@H](C)C(=O)N[C@H](C(=O)NCC#N)Cc3ccc(OCCN)c(c3)-c3cc2ccc3OCCN)c(C)c1 [Compound 509]	3 (≈ 3.51 µM)	> 64	–	–	–	> 4
CCCCc1ccc(C(=O)N[C@H](CCCCN)CC(=O)N(C)[C@@H]2C(=O)N[C@@H](C)C(=O)N[C@H](C(=O)NCC#N)Cc3ccc(OCCN)c(c3)-c3cc2ccc3OCCN)c(C)c1 [Compound 510]	1.5 (≈ 1.76 µM)	> 64	–	–	–	> 4
CCCCc1ccc(C(=O)N[C@@H](CCN)CC(=O)N(C)[C@@H]2C(=O)N[C@@H](C)C(=O)N[C@H](C(=O)NCC#N)Cc3ccc(OCCN)c(c3)-c3cc2ccc3OCCN)c(C)c1 [Compound 511]	1.5 (≈ 1.82 µM)	> 64	–	–	–	1 (≈ 1.21 µM)
CCCCCc1ccc(C(=O)N[C@@H](CCN)CC(=O)N(C)[C@@H]2C(=O)N[C@@H](C)C(=O)N[C@H](C(=O)NCC#N)Cc3ccc(OCCN)c(c3)-c3cc2ccc3OCCN)c(C)c1 [Compound 512]	0.38 (≈ 0.452 µM)	64 (≈ 76.2 µM)	–	–	–	0.5 (≈ 0.595 µM)
CCCCCCc1ccc(C(=O)N[C@@H](CCN)CC(=O)N(C)[C@@H]2C(=O)N[C@@H](C)C(=O)N[C@H](C(=O)NCC#N)Cc3ccc(OCCN)c(c3)-c3cc2ccc3OCCN)c(C)c1 [Compound 513]	0.19 (≈ 0.222 µM)	16 (≈ 18.7 µM)	–	–	–	0.13 (≈ 0.152 µM)
CCCCCCCCCCN(CCC(=O)N[C@@H](CCCCNC(=O)OC(C)(C)C)C(=O)N(C)[C@@H]1C(=O)N[C@@H](C)C(=O)N[C@H](C(=O)O)Cc2ccc(OC(=O)OC(C)(C)C)c(c2)-c2cc1ccc2OC1O[C@H](CO)[C@@H](O)[C@H](O)[C@H]1NC(=O)OC(C)(C)C)C(=O)OC(C)(C)C (stereo partly shown) [Compound 516]	2 (≈ 1.52 µM)	> 64	–	–	–	> 4
CCCCc1ccc(-c2ccc(C(=O)N[C@@H](CCC(=O)NCC(O)CO)C(=O)N(C)[C@@H]3C(=O)N[C@@H](C)C(=O)N[C@H](C(=O)NCC#N)Cc4ccc(OCCN)c(c4)-c4cc3ccc4OCCN)cc2)cc1 (stereo partly shown) [Compound 517]	0.38 (≈ 0.389 µM)	6 (≈ 6.15 µM)	–	–	–	0.19 (≈ 0.195 µM)
CCCCCCc1ccc(C(=O)N[C@@H](CCN[C@@H]2[C@@H](O)[C@H](O)[C@@H](CO)O[C@@H]2O)C(=O)N(C)[C@@H]2C(=O)N[C@@H](C)C(=O)N[C@H](C(=O)NCC#N)Cc3ccc(OCCN)c(c3)-c3cc2ccc3OCCN)c(C)c1 [Compound 518]	–	–	–	0.38 (≈ 0.379 µM)	4 (≈ 3.99 µM)	0.063 (≈ 0.0629 µM)
CCCCCCc1ccc(C(=O)N[C@@H](CCN)C(=O)N(C)[C@@H]2C(=O)N[C@@H](C)C(=O)N[C@H](C(=O)NCC#N)Cc3ccc(OCCN)c(c3)-c3cc2ccc3OCCN)c(OCCN)c1 [Compound 519]	0.13 (≈ 0.147 µM)	16 (≈ 18.1 µM)	–	–	–	0.25 (≈ 0.282 µM)
CCCCCCCCCC(=O)N[C@H](CO)C(=O)N1CC(N)C[C@H]1C(=O)N(C)[C@@H]1C(=O)N[C@@H](C)C(=O)N[C@H](C(=O)NCC#N)Cc2ccc(OCCN)c(c2)-c2cc1ccc2OCCN (stereo partly shown) [Compound 524-1]	–	–	–	0.22 (≈ 0.247 µM)	16 (≈ 18 µM)	0.19 (≈ 0.213 µM)
CCCCCCCCCCNCC(CO)C(=O)N(C)[C@@H]1C(=O)N[C@@H](C)C(=O)N[C@H](C(=O)NCC#N)Cc2ccc(OCCN)c(c2)-c2cc1ccc2OCCN (stereo partly shown) [Compound 525]	1.5 (≈ 1.93 µM)	> 64	–	–	–	> 4
CCCCCCc1ccc(C(=O)N2CCC(N)C[C@H]2C(=O)N(C)[C@@H]2C(=O)N[C@@H](C)C(=O)N[C@H](C(=O)NCC#N)Cc3ccc(OCCN)c(c3)-c3cc2ccc3OCCN)c(C)c1 (stereo partly shown) [Compound 526-3]	0.063 (≈ 0.0727 µM)	3 (≈ 3.46 µM)	–	–	–	0.031 (≈ 0.0358 µM)
CCCCCCOc1ccc(N2CCN(c3ccc(C(=O)N[C@@H](CCN)C(=O)N(C)[C@@H]4C(=O)N[C@@H](C)C(=O)N[C@H](C(=O)NCC#N)Cc5ccc(OCCN)c(c5)-c5cc4ccc5OCCN)cc3)CC2)cc1 [Compound 527]	0.063 (≈ 0.0629 µM)	4 (≈ 3.99 µM)	–	–	–	0.063 (≈ 0.0629 µM)
